{"source": "patent US8765688B2", "about": "“Anti-dandruff compositions containing peptides” (priority 2007, dated 2014)", "type_in_all_cases": "cell-based", "key": {"[1]": {"test_system": "Malassezia furfur", "assay": "Kinetics of the effect of P18 on M. furfur in the presence of a shampoo basic formulation, CFU", "conditions": "2.3-0.23 g/l, 5 min to 24 hours, 10% (v/v) formulation 31-3", "description": "The effect of the peptide […]; carboxy-terminal end amidated; […] The experiments were carried out as follows: The following shampoo basic formulation was prepared: The components Texapon NSO and Tego Betain L7 were mixed and dissolved. The pH was adjusted to pH 6-7 with NaOH. The effect of P18, ZPT and Climbazole against M. furfur was analyzed as follows: Growth medium: […]-Pityrosporum medium according to DSMZ 40 g/L malt extract 20 g/L ox bile 10 g/L Tween 40 The components were sterilized at 121° C., 1 bar superatmospheric pressure for 20 minutes. 2 g/L of olive oil (sterilized by filtration and, after autoclaving, added to the other components) Since it was a two-phase medium, the complete medium was treated with sonication in order to enlarge the phase boundary. For agar plates, if appropriate, […] of agar agar were added to the medium. The growth test was carried out as follows: […]. furfur and incubated with shaking overnight at 30° C. and 200 rpm. A 96-well microtiter plate was filled with in each case 100 μl of […]. furfur suspension of the overnight culture. […] The peptide P18 was dissolved in water with a concentration of 230 g/l. […] The microtiter plate was incubated with shaking at 30° C."}, "[2]": {"test_system": "Escherichia coli", "assay": "Long-term stability of P18 (2 weeks at 37° C.), detected through inhibition of the growth of Escherichia coli", "conditions": "for optical density at 620 nm: 25 μM", "description": "The long-term stability of P18 was observed over a period of 2 weeks. For this, a 1 mM P18 solution in water was incubated at 37° C. over the entire period. At the start of the experiment and then on these two weeks, the antimicrobial activity was detected through inhibition of the growth of Escherichia coli. The growth medium used here was LB medium as complex medium. The medium comprised 10 g of trypton, 5 g of yeast extract and 10 g of NaCl per liter.\nThe growth test was carried out as follows: A shake flask of LB medium was inoculated with Escherichia coli and incubated overnight with shaking at 37° C. and 200 rpm. A 96-well microtiter plate was filled with in each case 100 μl of LB medium and inoculated with E. coli suspension of the overnight culture. The E. coli suspension was adjusted at the start of the experiment to an optical density, measured at 620 nm, of about 0.02. The concentrates of the P18 inhibitor solutions were 1 mM in water.\nThe growth of the following mixtures was compared by measuring the optical density:\nE. coli suspension without the addition of an inhibitor.\nE. coli suspension and addition of an aqueous P18 solution with a final concentration of 25 μM. The aqueous P18 solution had been freshly prepared.\nE. coli suspension and addition of an aqueous P18 solution with a final concentration of 25 μM. The aqueous stock solution had been incubated for 2 weeks at 37° C.\nThe growth was observed over a period of 40 hours by measuring the optical density."}, "[3]": {"test_system": "Malassezia furfur", "assay": "Effect of P18 variants against M. furfur, CFU after 24 hours at 50 μM", "description": "The inhibitory effect of the following P18 variants against M. furfur was analyzed:\nThe experiments were carried out as follows:\nGrowth medium: M472-Pityrosporum medium according to DSMZ\nThe components were sterilized at 121° C., 1 bar superatmospheric pressure for 20 minutes.\n2 g/L of olive oil (sterilized by filtration and, after autoclaving, added to the other components)\nSince it was a two-phase medium, the complete medium was treated with sonication in order to enlarge the phase boundary.\nFor agar plates, if appropriate, 150 g/L of agar agar were added to the medium.\nThe growth test was carried out as follows: A shake flask with M472-Pityrosporum medium was inoculated with M. furfur and incubated with shaking overnight at 30° C. and 200 rpm.\nA 96-well microtiter plate was filled with in each case 100 μl of M472-Pityrosporum medium and inoculated with M. furfur suspension of the overnight culture. The M. furfur suspension was adjusted at the start of the experiment to an optical density, measured at 600 nm, of 0.1. […]\nAfter 24 hours, the colony-forming units (CFU were determined by plating out 10 μl from each of the suspensions and, after incubation for 6 days, counting the colonies. Two independent experiments with in each case three identical mixtures were carried out and the number of colony-forming units was averaged."}}, "note": "Ends that are not written are not given here.", "data": [{"substance": "KWKLFKKIPKFLHLAKKF-NH2 [P18, KWKLFKKIPKFLHLAKKF-NH2]", "values": [{"measurement": "effect on M. furfur in the presence of shampoo basic formulation (in words)", "setting": "[1]", "value": "superior characteristics as compared to Zincpyrithione or Climbazole"}, {"measurement": "antimicrobial activity after storage (long-term stability)", "setting": "[2]; 1 mM solution in water, 2 weeks at 37° C.", "value": "unchanged"}, {"measurement": "optical density at 620 nm", "setting": "[2]; fresh aqueous P18 solution, incubation time 0 h", "value": 0.098}, {"measurement": "optical density at 620 nm", "setting": "[2]; fresh aqueous P18 solution, incubation time 16 h", "value": 0}, {"measurement": "optical density at 620 nm", "setting": "[2]; fresh aqueous P18 solution, incubation time 24 h", "value": 0}, {"measurement": "optical density at 620 nm", "setting": "[2]; fresh aqueous P18 solution, incubation time 40 h", "value": 0}, {"measurement": "optical density at 620 nm", "setting": "[2]; stored aqueous P18 solution (2 weeks at 37° C.), incubation time 0 h", "value": 0.081}, {"measurement": "optical density at 620 nm", "setting": "[2]; stored aqueous P18 solution (2 weeks at 37° C.), incubation time 16 h", "value": 0}, {"measurement": "optical density at 620 nm", "setting": "[2]; stored aqueous P18 solution (2 weeks at 37° C.), incubation time 24 h", "value": 0}, {"measurement": "optical density at 620 nm", "setting": "[2]; stored aqueous P18 solution (2 weeks at 37° C.), incubation time 40 h", "value": 0}, {"measurement": "Averaged number of colony-forming units (CFU)", "setting": "[3]; 50 μM peptide in DMSO", "value": 0}, {"measurement": "inhibitory effect against M. furfur compared to DMSO", "setting": "[3]; 50 μM, effectiveness increasing in the order P18AC-OH, P18-OH, P18", "value": "increased inhibitory effect against M. furfur as compared to DMSO"}]}]}
